Measurements published in ChEMBL document CHEMBL1201862, “PubChem BioAssay data set” (2004).
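Briefly, cells in 96-well plates were exposed to five compound concentrations for 48 h, and endpoints were estimated by linear interpolation. GI50: concentration for 50% inhibition of growth.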 The source made the active and inactive calls. No stated cut-off is given here; in the data, active = GI50 up to about 1.1 µM and inactive = higher.

Assays:
Experiment in all cases: NCI-60 cell line screen, 48 h
[1] = tested on: OVCAR-4
[2] = tested on: SW-620
[3] = tested on: 786-0
[4] = tested on: MDA-MB-231
[5] = tested on: T47D
[6] = tested on: EKVX
[7] = tested on: SN12C
[8] = tested on: HCT-116
[9] = tested on: TK-10
[10] = tested on: HOP-92
[11] = tested on: HOP-62
[12] = tested on: Hs-578T
[13] = tested on: HCC 2998
[14] = tested on: UO-31
[15] = tested on: A549
[16] = tested on: OVCAR-5
[17] = tested on: RXF 393
[18] = tested on: Malme-3M
[19] = tested on: NCI-H460
[20] = tested on: MCF7
[21] = tested on: SK-MEL-28
[22] = tested on: IGROV-1
[23] = tested on: LOX IMVI
[24] = tested on: M14
[25] = tested on: COLO 205
[26] = tested on: HL-60
[27] = tested on: A498
[28] = tested on: K562
[29] = tested on: UACC-257
[30] = tested on: ACHN
[31] = tested on: CCRF-CEM
[32] = tested on: HT-29
[33] = tested on: RPMI-8226
[34] = tested on: SF-295
[35] = tested on: SF-539
[36] = tested on: BT-549
[37] = tested on: NCI/ADR-RES
[38] = tested on: PC-3
[39] = tested on: KM12
[40] = tested on: OVCAR-8
[41] = tested on: SK-MEL-5
[42] = tested on: MDA-MB-435
[43] = tested on: HCT-15
[44] = tested on: SNB-19
[45] = tested on: CAKI-1
[46] = tested on: NCI-H23
[47] = tested on: SK-OV-3
[48] = tested on: SF-268
[49] = tested on: SR
[50] = tested on: U-251
[51] = tested on: NCI-H522
[52] = tested on: MOLT-4
[53] = tested on: OVCAR-3
[54] = tested on: SK-MEL-2
[55] = tested on: SNB-75
[56] = tested on: UACC-62
[57] = tested on: NCI-H226
[58] = tested on: DU-145

SMILES: CCOC(=O)c1c(Br)c(-c2ccc(OC)cc2)c(Br)n1C
- GI50 [1]: 47.1 µM (inactive)
- GI50 [2]: 9.46 µM (inactive)
- GI50 [3]: 21.6 µM (inactive)
- GI50 [4]: 17 µM (inactive)
- GI50 [5]: 13.4 µM (inactive)
- GI50 [6]: 16.8 µM (inactive)
- GI50 [7]: 12.9 µM (inactive)
- GI50 [8]: 6.56 µM (inactive)
- GI50 [9]: 20.7 µM (inactive)
- GI50 [10]: 8.17 µM (inactive)
- GI50 [11]: 11.8 µM (inactive)
- GI50 [12]: 11.6 µM (inactive)
- GI50 [13]: > 10 µM (inactive)
- GI50 [14]: 12.2 µM (inactive)
- GI50 [15]: 21.3 µM (inactive)
- GI50 [16]: 72.3 µM (inactive)
- GI50 [17]: 17.3 µM (inactive)
- GI50 [18]: 12.1 µM (inactive)
- GI50 [19]: 52.2 µM (inactive)
- GI50 [20]: 8.39 µM (inactive)
- GI50 [21]: 37.6 µM (inactive)
- GI50 [22]: 22.2 µM (inactive)
- GI50 [23]: 7.14 µM (inactive)
- GI50 [24]: 26.4 µM (inactive)
- GI50 [25]: 27.6 µM (inactive)
- GI50 [26]: 4.06 µM (inactive)
- GI50 [27]: 14.6 µM (inactive)
- GI50 [28]: 3.61 µM (inactive)
- GI50 [29]: 23.2 µM (inactive)
- GI50 [30]: 29.6 µM (inactive)
- GI50 [31]: 16.3 µM (inactive)
- GI50 [32]: 12.7 µM (inactive)
- GI50 [33]: 17.7 µM (inactive)
- GI50 [34]: 25.2 µM (inactive)
- GI50 [35]: 20.7 µM (inactive)
- GI50 [36]: 22.4 µM (inactive)
- GI50 [37]: 5.18 µM (inactive)
- GI50 [38]: 11.1 µM (inactive)
- GI50 [39]: 11.4 µM (inactive)
- GI50 [40]: 27.1 µM (inactive)
- GI50 [41]: 10.6 µM (inactive)
- GI50 [42]: 2.37 µM (inactive)
- GI50 [43]: 8.61 µM
- GI50 [44]: 34.9 µM (inactive)
- GI50 [45]: > 10 µM (inactive)
- GI50 [46]: 28 µM (inactive)
- GI50 [47]: 18.5 µM (inactive)
- GI50 [48]: 55.5 µM (inactive)
- GI50 [49]: 2.23 µM (inactive)
- GI50 [50]: 33.2 µM (inactive)
- GI50 [51]: 6.62 µM (inactive)
- GI50 [52]: 8.57 µM (inactive)
- GI50 [53]: 17.1 µM (inactive)
- GI50 [54]: 19.2 µM (inactive)
- GI50 [55]: 1.94 µM (inactive)
- GI50 [56]: 5.09 µM (inactive)
- GI50 [57]: 22.2 µM (inactive)
- GI50 [58]: 32.2 µM (inactive)
